pIC50: −log10 of the molar value. Structures can show the parent of a compound that is named as a salt. Where two headings read alike, the source gives them in different places.
Tests used:
monoamine oxidase = assay: Inhibition of rat liver monoamine oxidase deamination of dopamine (DA, mixed-type MAO A and B substrate) in vitro; type: biochemical; conditions: substrate DA (5 × 10^-4 M), average of at least 3 independent experiments
Protocol: (§1) The aliphatic propargylamine inhibitors (from 1×10^-10 M to 1×10^-4 M) were preincubated with the MAO for 20 min. at ambient room temperature and then the residual enzyme activities were determined by addition of the substrates, followed by further incubation at 37° C. for 30 min. The enzymatic reactions were terminated by the addition of citric acid and the aldehyde products were extracted with toluene: ethyl acetate (1:1, v/v) and the radio-activities assessed in a scintillation counter.

MAO-A [1] = target: T1, MAO-A (Rattus norvegicus, UniProt P21396); assay: biochemical; type: biochemical
T1 sequence (P21396 1-526): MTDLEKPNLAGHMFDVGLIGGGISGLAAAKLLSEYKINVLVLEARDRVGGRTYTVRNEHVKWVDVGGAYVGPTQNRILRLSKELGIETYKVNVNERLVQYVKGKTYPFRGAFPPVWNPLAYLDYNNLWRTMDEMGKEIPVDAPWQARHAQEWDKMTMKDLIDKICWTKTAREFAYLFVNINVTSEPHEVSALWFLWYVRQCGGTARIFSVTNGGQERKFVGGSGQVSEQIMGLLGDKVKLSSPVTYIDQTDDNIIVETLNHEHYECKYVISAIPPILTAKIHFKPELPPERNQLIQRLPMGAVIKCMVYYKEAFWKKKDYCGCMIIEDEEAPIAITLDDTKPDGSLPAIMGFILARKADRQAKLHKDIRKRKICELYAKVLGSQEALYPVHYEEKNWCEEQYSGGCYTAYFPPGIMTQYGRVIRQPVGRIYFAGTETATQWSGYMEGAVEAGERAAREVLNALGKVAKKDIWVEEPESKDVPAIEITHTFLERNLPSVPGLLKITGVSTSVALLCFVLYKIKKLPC
Protocol: as §1

MAO-B [2] = target: T2, MAO-B (Rattus norvegicus, UniProt P19643); assay: biochemical; type: biochemical
T2 sequence (P19643 1-520): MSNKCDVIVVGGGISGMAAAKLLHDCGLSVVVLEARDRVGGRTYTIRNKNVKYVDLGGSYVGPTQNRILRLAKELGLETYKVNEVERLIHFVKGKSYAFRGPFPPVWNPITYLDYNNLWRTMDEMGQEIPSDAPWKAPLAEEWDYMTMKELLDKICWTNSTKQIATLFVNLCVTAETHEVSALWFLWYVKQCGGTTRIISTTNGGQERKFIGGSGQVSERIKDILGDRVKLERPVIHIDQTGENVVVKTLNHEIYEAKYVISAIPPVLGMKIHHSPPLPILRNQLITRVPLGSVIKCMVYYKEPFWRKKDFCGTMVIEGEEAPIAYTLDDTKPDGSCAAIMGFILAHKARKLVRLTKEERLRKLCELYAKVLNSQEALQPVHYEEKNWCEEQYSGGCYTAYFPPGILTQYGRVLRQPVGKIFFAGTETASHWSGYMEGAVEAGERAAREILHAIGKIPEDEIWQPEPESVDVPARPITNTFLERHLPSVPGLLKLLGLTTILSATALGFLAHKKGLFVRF
Protocol: as §1

MAO-B [3] = target: T3, MAO-B (Mus musculus, UniProt Q8BW75); assay: in vivo; type: in vivo; conditions: for Ratio MAO-A/MAO-B: 120 min; for ED50: read-out: PE ID50
T3 construct: MAO activities in the mouse brain after; from tissue
T3 sequence (Q8BW75 1-520): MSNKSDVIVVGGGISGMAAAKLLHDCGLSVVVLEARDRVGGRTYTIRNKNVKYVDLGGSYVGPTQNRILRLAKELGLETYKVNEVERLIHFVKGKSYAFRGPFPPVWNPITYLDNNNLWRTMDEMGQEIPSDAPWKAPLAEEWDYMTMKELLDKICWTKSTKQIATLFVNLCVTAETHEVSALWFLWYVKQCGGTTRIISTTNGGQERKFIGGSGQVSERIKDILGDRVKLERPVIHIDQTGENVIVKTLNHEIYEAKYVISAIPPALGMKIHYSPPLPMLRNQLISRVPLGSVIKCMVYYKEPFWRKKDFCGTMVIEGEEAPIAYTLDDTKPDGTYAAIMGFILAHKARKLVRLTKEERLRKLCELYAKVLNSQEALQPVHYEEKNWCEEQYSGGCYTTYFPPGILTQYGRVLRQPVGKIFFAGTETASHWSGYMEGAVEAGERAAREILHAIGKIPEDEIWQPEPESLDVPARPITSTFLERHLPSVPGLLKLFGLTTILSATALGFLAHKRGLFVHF
Protocol: (§2) Albino Swiss mice were used in this study. The animals were injected intraperitoneally with different doses of the aliphatic propargylamines in 100 μL saline.
(§3) 0.5, 1, 2, 5, 10, 20, 50, 100 mg/Kg. Striata were dissected from the brai
(§4) two hours after i.p. administration of the drugs. MAOA and MAOB activitie
(§5) were determined immediately. The values were estimated from doseresponse

MAO-A [4] = target: T4, MAO-A (Mus musculus, UniProt Q64133); assay: in vivo; conditions: ip, read-out: 5-HT ID50
T4 construct: MAO activities in the mouse brain after; from tissue
T4 sequence (Q64133 1-526): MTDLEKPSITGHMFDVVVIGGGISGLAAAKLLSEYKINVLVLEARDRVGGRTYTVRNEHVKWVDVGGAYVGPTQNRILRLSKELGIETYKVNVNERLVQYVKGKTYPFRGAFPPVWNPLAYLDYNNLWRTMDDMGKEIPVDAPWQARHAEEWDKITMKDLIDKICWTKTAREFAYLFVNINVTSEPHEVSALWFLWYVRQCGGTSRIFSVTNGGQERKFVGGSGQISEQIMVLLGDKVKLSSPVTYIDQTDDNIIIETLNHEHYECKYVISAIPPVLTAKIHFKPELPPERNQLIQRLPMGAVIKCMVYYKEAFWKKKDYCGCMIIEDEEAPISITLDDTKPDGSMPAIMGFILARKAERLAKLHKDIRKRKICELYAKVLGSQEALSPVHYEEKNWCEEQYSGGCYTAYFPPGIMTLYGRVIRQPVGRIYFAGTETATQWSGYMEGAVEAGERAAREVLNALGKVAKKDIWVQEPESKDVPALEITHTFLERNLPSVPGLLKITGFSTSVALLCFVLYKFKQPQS
Protocol: as §2, §3, §4, §5

MAO-A [5] = target: T4, MAO-A; type: in vivo
Protocol: (§6) Table 3 indicates the MAO activities in the mouse brain following oral administration of the aliphatic propargylamines.
(§7) of each compound. Striata were dissected from the brain two hours after
(§8) the administration of the drugs. MAOA and MAOB activities were determined

MAO-B [6] = target: T3, MAO-B; assay: MAO-B activity in the mouse brain after oral administration (substrate PE); type: in vivo; conditions: for Relative activity PE: oral 10 mg/Kg, 2 hours, PE (1.9 × 10^-5 M), mean ± standard error, saline = 100
Protocol: as §6, §7, §8
Striata were dissected from the brain two
hours after oral administration of the drugs. MAOB activities were then
determined immediately. The values were estimated from doseresponse

[7] = substrate 5-HT (5 × 10^-4 M), rat liver MAO, in vitro, average of at least 3 independent experiments
[8] = substrate PE (1.9 × 10^-5 M), rat liver MAO, in vitro, average of at least 3 independent experiments
[9] = ID50 i.p. in mice versus IC50 in vitro
[10] = mouse, ip, 2 hours after administration, […], estimated from dose response curves
[11] = rat, liver mitochondrial membranes
[12] = […], rat liver MAO, in vitro, average of at least 3 independent experiments, read-out: PE IC50

C#CCN(C)CCCC(=O)O [Example 3-CP-MP, N-(3-Carboxy-1-propyl)-N-methylproparglamine oxalate]
DA IC50 (monoamine oxidase): inactive
5-HT IC50 (MAO-A [1]; [7]): inactive
PE IC50 (MAO-B [2]; [8]): inactive

C#CCN(C)C(CC)CC.O=C(O)C(=O)O [Example M-3-PP, N-Methyl-N-(3-pentyl)propargylamine oxalate]
MAO-B ID50 (mg/Kg) / IC50 (1 × 10^-6 M) (MAO-B [3]; [9]): 10 (mg/Kg)/(1 × 10^-6 M)
Ratio MAO-A/MAO-B (MAO-B [3]; mouse, in vivo, ip): 12
ED50 (MAO-B [3]; [10]): 1 mg/kg
ED50 (MAO-A [4]; 2 h): 12 mg/kg
pIC50 (MAO-A [1]; [7]): 5.70
Ratio MAO-A/MAO-B (MAO-B [2]; [11]): 10
pIC50 (MAO-B [2]; read-out: PE IC50): 6.70

C#CCN(C)C(C)CCCCCCCCCC.Cl (centres unmarked) [Example 2-DdMP, N-(2-dodecyl)-N-methylpropargylamine-HCl]
pIC50 (monoamine oxidase): 6.52
Relative activity 5-HT (MAO-A [5]; mouse, in vivo, po, 10 mg/kg): 107 ± 14
MAO-B ID50 (mg/Kg) / IC50 (1 × 10^-6 M) (MAO-B [3]; mouse, in vivo, ip): 100
Ratio MAO-A/MAO-B (MAO-B [3]; mouse, in vivo, ip): 15
ED50 (MAO-B [3]; mouse, ip, 2 h): 4 mg/kg
ED50 (MAO-A [4]; 2 h): 60 mg/kg
pIC50 (MAO-A [1]; read-out: 5-HT IC50): 5.70
Ratio MAO-A/MAO-B (MAO-B [2]; [11]): 50
pIC50 (MAO-B [2]; [8]): 7.40
effectiveness in blocking MAO-B activity in vivo after acute oral administration (in words) (MAO-B [6]; mouse, oral): less potent at inhibiting MAO-B activity in vivo after acute administration
Relative activity PE (MAO-B [6]): 64 ± 8%

C#CCN(C)CCCCCl.Cl [Cl-1-BuMP, N-(4-Chloro-1-butyl)-N-methylpropargylamine-HCl]
pIC50 (MAO-A [1]; [7]): < 4.00
pIC50 (MAO-B [2]; [12]): 5.00
Ratio MAO-A/MAO-B (MAO-B [2]; ratio of IC50 values, in vitro): > 10

C#CCN(C)CCCCCCO.Cl [Example 6-OH-Hx1MP, N-(6-Hydroxy-1-hexyl)-N-methylpropargylamine-HCl]
5-HT IC50 (MAO-A [1]; [7]): inactive
pIC50 (MAO-B [2]; [8]): 4.00

C#CCN(C)C(C)CCCCC.Cl (centres unmarked) [Example 2-HMP, N-(2-Heptyl)-N-methylpropargylamine hydrochloride]
pIC50 (monoamine oxidase): 6.52
Relative activity 5-HT (MAO-A [5]; mouse, in vivo, po, 10 mg/kg): 99 ± 5
MAO-B ID50 (mg/Kg) / IC50 (1 × 10^-6 M) (MAO-B [3]; mouse, in vivo, ip): 2.5
Ratio MAO-A/MAO-B (MAO-B [3]; mouse, in vivo, ip): 50
ED50 (MAO-B [3]; mouse, ip, 2 h): 0.5 mg/kg
ED50 (MAO-A [4]; 2 h): 25 mg/kg
pIC50 (MAO-A [1]; [7]): 4.70
Ratio MAO-A/MAO-B (MAO-B [2]; [11]): 100
pIC50 (MAO-B [2]; read-out: PE IC50): 6.70
Relative activity PE (MAO-B [6]): 39 ± 4%

C#CCN(CC)C(C)CC (centres unmarked) [Example 2-BuEP, N-(2-Butyl)-N-ethylpropargylamine hydrochloric salt]
5-HT IC50 (MAO-A [1]; [7]): inactive
PE IC50 (MAO-B [2]; [8]): inactive

C#CCN(CC)CCCC.O=C(O)C(=O)O [Example 1-BuEP, N-(1-Butyl)-N-ethylpropargylamine oxalate salt]
5-HT IC50 (MAO-A [1]; [7]): inactive
PE IC50 (MAO-B [2]): inactive

C#CCN(C)C(C)C.Cl [Example 2-PrMP, N-Methyl-N-(2-propyl)propargylamine hydrochloride]
pIC50 (monoamine oxidase): 4.52
5-HT IC50 (MAO-A [1]; [7]): no effect
pIC50 (MAO-B [2]; [12]): 4.70

C#CCN(C)C(C)CCCC(=O)OCC.Cl (centres unmarked) [Example 5-CP2MP, N-(5-Carbethoxy-2-pentyl)-N-methylpropargylamine-HCl]
DA IC50 (monoamine oxidase): inactive
5-HT IC50 (MAO-A [1]; [7]): inactive
PE IC50 (MAO-B [2]): inactive

C#CCN(C)CCCCCC(=O)OCC.O=C(O)C(=O)O [Example 5-CP1MP, N-(5-carbethoxy-1-pentyl)-N-methylpropargylamine oxalate]
DA IC50 (monoamine oxidase): inactive
5-HT IC50 (MAO-A [1]; [7]): inactive
PE IC50 (MAO-B [2]): inactive

C#CCN(C)CCCCCCC.Cl [Example 1-HMP, N-(1-Heptyl)-N-methylpropargylamine hydrochloride]
Relative activity 5-HT (MAO-A [5]; oral 10 mg/Kg, 2 hours, 5-HT (5 × 10^-4 M), mean ± standard error, saline = 100): 123 ± 16%
MAO-B ID50 (mg/Kg) / IC50 (1 × 10^-6 M) (MAO-B [3]; [9]): 7.5 (mg/Kg)/(1 × 10^-6 M)
ED50 (MAO-B [3]; [10]): 15 mg/kg
Ratio MAO-A/MAO-B (MAO-B [3]; ratio of ID50 values, i.p.): 7
ED50 (MAO-A [4]; 2 hours after administration, 5-HT 5 × 10^-4 M, estimated from dose response curves): 100 mg/kg
pIC50 (MAO-A [1]; [7]): 4.40
Ratio MAO-A/MAO-B (MAO-B [2]; ratio of IC50 values, in vitro): 20
pIC50 (MAO-B [2]; read-out: PE IC50): 5.70
Relative activity PE (MAO-B [6]): 118 ± 14%

C#CCCN(C)C(C)CC.O=C(O)C(=O)O (centres unmarked) [Example 3-BuBuM, N-(3-Butynyl)-N-(2-butyl)methylamine oxalate salt]
5-HT IC50 (MAO-A [1]; [7]): inactive
PE IC50 (MAO-B [2]): inactive

C#CCNC(C)CC.Cl (centres unmarked) [Example 2-BuPP, N-(2-Butyl)propargylamine hydrochloride salt]
5-HT IC50 (MAO-A [1]; [7]): inactive
PE IC50 (MAO-B [2]): inactive

— US5508311A, “Aliphatic propargylamines as selective MAO-B inhibitors and as neuroprotective agents” (University of Saskatchewan, priority 1993, dated 1996)
